Series [1] concerns murine NPM1c-driven AML. In words: Murine NPM1c-driven AML model. The following applies: mouse, in vivo. The text has this: (§1) We first assessed ActD response in primary cells.
(§2) We therefore explored the ActD/Venetoclax interaction in different NPM1c-driven AML models in vivo. […] Thus, ActD and Venetoclax dramatically synergized to clear AMLs in vivo.

Series [2] deals with NPM1c-AML. The following applies: Half of NPM1c-AML patients; single agent; cited from earlier work.
Series [3] relates to leukemic blasts. In words: AML patient treated with a single ActD course. Type of series: in vivo.
Series [4] deals with AML3 cells. In words: Mitochondrial network and function in AML3 cells. The class given is cell-based. The text has this: (§3) Conversely, we used Thenoyl-trifluoroacetone (TTFA) a well-characterized inhibitor of mitochondrial complex II and major inducer of ROS.
The subject of series [5] is TP53.
Series [6] deals with T1, complex II (Homo sapiens, UniProt P31040).
T1 construct: endogenous in cells; host or cells: NPM1c-expressing cells (not further specified; the same paragraph mentions AML3, AML2-NPM1c and NPM1c-ES cells)
T1 sequence (P31040 43-664): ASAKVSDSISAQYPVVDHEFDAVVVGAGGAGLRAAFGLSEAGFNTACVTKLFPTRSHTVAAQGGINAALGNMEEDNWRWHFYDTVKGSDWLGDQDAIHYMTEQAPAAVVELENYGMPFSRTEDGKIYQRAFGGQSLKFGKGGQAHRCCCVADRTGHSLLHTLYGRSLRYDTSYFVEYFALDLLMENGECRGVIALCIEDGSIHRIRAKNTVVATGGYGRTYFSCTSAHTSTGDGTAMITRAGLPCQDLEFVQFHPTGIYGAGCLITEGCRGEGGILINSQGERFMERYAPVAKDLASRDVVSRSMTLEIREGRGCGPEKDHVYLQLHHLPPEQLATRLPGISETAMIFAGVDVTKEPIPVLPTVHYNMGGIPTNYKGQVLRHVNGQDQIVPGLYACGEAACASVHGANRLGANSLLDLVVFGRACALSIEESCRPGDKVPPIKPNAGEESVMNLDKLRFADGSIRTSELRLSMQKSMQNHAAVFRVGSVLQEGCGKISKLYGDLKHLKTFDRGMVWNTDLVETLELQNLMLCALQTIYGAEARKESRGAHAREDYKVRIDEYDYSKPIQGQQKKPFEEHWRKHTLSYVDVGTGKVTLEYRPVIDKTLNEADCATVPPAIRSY
T1 sequence (P21912 29-280 partner): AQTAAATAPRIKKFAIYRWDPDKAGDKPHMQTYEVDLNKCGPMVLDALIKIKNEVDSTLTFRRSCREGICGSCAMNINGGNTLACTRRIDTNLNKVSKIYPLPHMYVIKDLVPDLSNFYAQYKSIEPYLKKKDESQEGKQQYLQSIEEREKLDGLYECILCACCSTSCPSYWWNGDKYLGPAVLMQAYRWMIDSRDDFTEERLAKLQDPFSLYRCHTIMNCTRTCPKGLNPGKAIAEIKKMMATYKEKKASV
T1 sequence (Q99643 30-169 partner): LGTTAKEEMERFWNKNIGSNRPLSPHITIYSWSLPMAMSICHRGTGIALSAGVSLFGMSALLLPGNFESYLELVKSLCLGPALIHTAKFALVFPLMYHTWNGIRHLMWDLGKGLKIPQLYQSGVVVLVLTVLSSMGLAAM
T1 sequence (O14521 57-159 partner): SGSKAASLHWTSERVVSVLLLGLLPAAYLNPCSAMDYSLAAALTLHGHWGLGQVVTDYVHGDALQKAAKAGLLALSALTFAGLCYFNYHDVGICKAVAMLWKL
In words: Electron transport chain complex activity. Type of series: biochemical. As to conditions: but not complex I or IV; primarily in NPM1c-expressing cells.

Series [7] relates to PML NBs. Nature of the series: PML nuclear body (NB) reformation ex vivo. The following applies: for effect of ROS scavenger on ActD NB-restoration: AML2-NPM1c cells. The class given is cell-based.
Description: as §3

In series [8] the test system is AML3 cells. Nature of the series: Senescence markers and clonogenic activity in AML3 cells. Type of series: cell-based. As to conditions: for clonogenic activity: AML3 cells.
Description: as §3

Series [9] relates to primary human NPM1c-AML blasts. In words: Immune-deficient mice xenografted with primary human NPM1c-AML blasts. Type of series: in vivo.
Description: FIG. 2: ActD enhances Venetoclax anti-leukaemic effects. Response to ActD and/or Venetoclax in a transplantable AML model initiated by NPM1c+IDH1^R132H mutation. A, GFP abundance in bone marrow samples collected at treatment interruption and B, survival curve, n=2. C, abundance of human AML cells in xenografted mice treated for two weeks. Combined therapy induces AML regression.
as §1, §2

In series [10] the test system is AML2-NPM1c cells. Nature of the series: Growth of isogenic AML2-NPM1c / AML2-NPM1 cells. Type of series: cell-based. As to conditions: AML2-NPM1c vs AML2-NPM1 cells; inhibition of JAK1/2 signalling. The text has this: TFAM reduction may reflect transcriptional down-regulation of PGC1A by IFN signalling^16. Importantly, stable NPM1c expression drove PGC1α hyperacetylation resulting in its functional inactivation, possibly through PML NB downregulation (data not shown)^10. These altered mitochondria and release of mtDNA into the cytoplasm activate multiple downstream intracellular stress pathway, particularly IFN and NFKB targets (data not shown), at least in part through cGAS (cyclic GMP-AMP synthase) activation and cGAMP production (data not shown). Other stress pathways, such as oxidative stress or unfolded protein response were also activated (data not shown), resulting in decreased protein synthesis (data not shown). Western blot analyses comparing AML2-NPM1c to AML2-NPM1 cells validated activation of multiple stress pathways by the NPM1c oncogene, including the up-regulation of key TP53-repressed metabolic enzymes (data not shown). As expected, these mitochondrial alterations yielded decreased ATP/ADP+AMP or GTP/GDP+GMP ratios, reflecting metabolic stress (data not shown). Stress responses could directly or indirectly favour leukaemogenesis^20-22. […] These mitochondrial defects may constitute targetable intrinsic weaknesses and, for example, account for the exquisite clinical sensitivity of NPM1c-AMLs to Bcl2 antagonists^23.

The subject of series [11] is TP53. Nature of the series: Doxorubicin mitochondrial rounding and TP53 activation. Type of series: cell-based. An excerpt: Targeting mitochondrial function by antibiotics was proposed as a therapeutic option for cancer^35,36 and mitochondrial status modulates chemotherapy response^37,38. Actinomycin D drives mitochondrial alterations prior to detectable activation of the ribosomal or DNA damage checkpoints. Actinomycin D inhibits complex II activity, which may reflect its structural similarity with FAD, one of its electron transporters. This may explain how ActD induces ROS, immediate early response genes, sensitizes cells to apoptosis or initiates immunogenic cell death^39. Complex II is important in hematopoietic progenitors^40, and regulated by PML^41, contributing to ActD therapeutic index in AML blasts. In vivo, ActD triggered features of mitochondria-induced senescence^26. Downstream of acute mitochondrial stress, our experiments reveal a key role of ROS signalling and PML/TP53 senescence (data not shown), drawing an unexpected similarity with acute promyelocytic leukemia, where NBs reformation drive response to arsenic therapy^12,42. In that respect, complex II poisoning has activity in APL models^43. […] Clinically, as both antineoplastic antibiotics (e.g. ActD) and BCL-2 inhibitors (e.g. Venetoclax) have remarkable clinical activity in NPM1c-AMLs, the dramatic synergy outlined here should rapidly be evaluated in patients.

Setting [12] is: leukemic blasts from peripheral blood.

Read-outs that look alike come from different tables or passages of the source. Starred links: 1 amine or outer side, 2 acyl side, 3 side chain; linkers in the order of their positions; H or OH if unused. Positions of bridges follow the written chain, without caps; N, C: chain ends. Non-standard residues stand in square brackets, D forms with d. Residues, ends and D or L forms follow the SMILES beside them. Chains are numbered I, II in the order given. Actinocin(9to1) = Cc1c2oc3c(C)ccc(C(=O)[*:1])c3nc-2c(C(=O)[*:2])c(N)c1=O; NMeV = CN[C@H](C(=O)O)C(C)C; Sar = CNCC(=O)O

Take `Cc1c2oc3c(C)ccc(C(=O)N[C@@H]4C(=O)N[C@H](C(C)C)C(=O)N5CCC[C@H]5C(=O)N(C)CC(=O)N(C)[C@@H](C(C)C)C(=O)O[C@@H]4C)c3nc-2c(C(=O)N[C@@H]2C(=O)N[C@H](C(C)C)C(=O)N3CCC[C@H]3C(=O)N(C)CC(=O)N(C)[C@@H](C(C)C)C(=O)O[C@@H]2C)c(N)c1=O` [ActD, actinomycin D] (I: T[dV]P[Sar][NMeV] / II: T[dV]P[Sar][NMeV]; ester I:1-I:C, II:1-II:C; linker I:N-II:N via Actinocin(9to1)): the “AML response with leukaemia-selective TP53 activation” value in [1] was “AML regression and blast differentiation”. Besides, the clinical response entry in series [2] is “dramatic responses”. The blast decrease in series [3] (after a single course of daily ActD injections for 5 days) is reported as 10^4 fold. Also, in series [3] (setting [12]), the “completion of in vivo reformation of PML NBs” value is at most 12 h and the “start of in vivo reformation of PML NBs” value is recorded as 6 h. In addition, in [4] (AML3 and NPM1c-ES cells, as early as 1h), the mitochondrial network result is “fragmented the mitochondrial network”. In series [5] (AML3 cells, ex vivo, 5 nM), the TP53 activation result is on record as “triggered rapid TP53 activation”. For the same compound, the TP53 stabilization entry in series [5] (normal bone marrow progenitors in vivo or ex vivo, human or mouse primary fibroblasts (WI-38, MEFs) ex vivo, low doses) is reported as “no significant TP53 stabilization”. Further, the “complex II activity” value in [6] is given as “further inhibited the basal low level of complex II”. In addition, in series [7] (AML2-NPM1c, AML3 cells or NPM1c-transfected MEFs), the “PML NB reformation” value is given as “very rapid NB reformation”. Moreover, the “PML NB restoration” value in series [7] (primary NPM1c-AML blasts treated ex vivo) is reported as “PML NB restoration was also observed”. Also, the clonogenic activity result in series [8] is reported as “loss of clonogenic activity”. Besides, in [8] (NPM1c-positive AML3 cells), the “senescence signs (TP53 activation, p21, Serpine-1, cGAMP, SA-β-Gal)” value is “multiple signs of senescence”. In addition, the leukemic burden entry in [9] (after 5 days of ActD therapy) is reported as “dramatically reduced the leukemic burden”. Further, the “stabilization of human TP53 vs mouse Trp53” value in series [9] (two xenografted mice) is “rapidly triggered selective stabilization of human TP53”.
`N#CCNC(=O)c1ccc(-c2ccnc(Nc3ccc(N4CCOCC4)cc3)n2)cc1` [CYT387]: the growth result in series [10] is reported as “inhibited growth, more potently in AML2-NPM1c than in AML2-NPM1 cells”.
`COc1cccc2c1C(=O)c1c(O)c3c(c(O)c1C2=O)C[C@@](O)(C(=O)CO)C[C@@H]3O[C@H]1C[C@H](N)[C@H](O)[C@H](C)O1` [Doxorubicin]: in series [11], the TP53 activation result is “PML-dependent, NPM1c-enhanced and NAC-reversible TP53 activation”; the mitochondrial morphology entry was “triggered immediate mitochondrial rounding”.
Take `CC(=O)N[C@@H](CS)C(=O)O` [N-acetyl cysteine]: in series [7], the “effect of ROS scavenger on ActD NB-restoration” value is listed as “completely blocked”.
Turning to `O=C(CC(=O)C(F)(F)F)c1cccs1` [TTFA, Thenoyl-trifluoroacetone], the mitochondrial superoxide result in series [4] (AML3 cells) was “massively induced mitochondrial superoxide”. For the same compound, in [7] (NPM1c-transfected stable GFP-PML-III MEFs), the NB formation result is given as “restored NB formation”. Moreover, in series [8], the clonogenic activity result is listed as “decreased clonogenic activity”.
`N[C@@H](CCC(=O)N[C@@H](CS)C(=O)NCC(=O)O)C(=O)O` [glutathione]: the “effect of ROS scavenger on ActD NB-restoration” value in series [7] was “completely blocked”.
As for venetoclax, the mitochondrial effects entry in [4] (AML3 cells, Venetoclax alone) is “induced mitochondrial fragmentation, reduction of mitochondrial membrane potential, production of ROS and leakage of mtDNA to the cytoplasm”.

The record behind these values is patent US20230270816A1, “COMBINATION OF ANTINEOPLASTIC ANTIBIOTICS AND BCL-2 INHIBITORS FOR THE TREATMENT OF NPM-1-DRIVEN ACUTE MYELOID LEUKEMIA (AML)” (INSERM (INSTITUTE NATIONAL DE LA SANTÉ ET DE LA RECHERCHE …, priority 2020, published 2023).
